According to patent US20260207600A1, “METHODS OF TREATMENT WITH MYOSIN MODULATOR” (MYOKARDIA, INC., priority 2019, published 2026):

System: subjects with symptomatic non-obstructive hypertrophic cardiomyopathy (nHCM)
Assay: […]-HCM Phase 2 randomized, double-blind, placebo-controlled, concentration-guided study
Assay type: in vivo, human
Set-up: Overall KCCQ Summary Score / Clinical KCCQ Summary Score / Change in Overall KCCQ Summary Score, Mean / Change in Clinical KCCQ Summary Score, Mean / Change from Baseline in Overall KCCQ Summary Score, Mean / Change from Baseline in Clinical KCCQ Summary Score, Mean: scale not given here
Details: for Composite functional endpoint Type 1, % / Composite functional endpoint Type 2, % / Met composite functional endpoint, either type, %: Combined Subgroup
Text: This is a Phase 2 trial designed to assess the safety and tolerability of a range of exposures over 16 weeks of treatment in subjects with symptomatic, non-obstructive HCM. All study subjects were required to be diagnosed with non-obstructive HCM, with left ventricular wall thickness either ≥15 mm or ≥13 mm with a family history of HCM, LVEF≥55%, NYHA classifications of Class II or III, and NT-proBNP levels of greater than 300 pg/mL at rest. Baseline characteristics, such as age, weight, gender, pathogenic mutation status, background beta blocker use, NYHA classification and exercise capacity were approximately evenly distributed between active and placebo arms.
This double-blind study enrolled 59 individuals with nHCM (Left ventricular outflow tract gradient<30 mmHg; resting or provoked), NYHA Class II or III, and LVEF≥55%. Subjects were randomized 1:1:1 to one of two target plasma drug concentrations (Group 1: ~200 ng/mL and Group 2: ~ 500 ng/ml) or placebo for 16 weeks, followed by an 8-week washout. […] Predefined criteria, including LVEF (LVEF≤45%), guided study drug discontinuation if indicated. Cardiopulmonary exercise testing was performed at baseline and Week 16 to assess the impact on exercise capacity.
Dose adjustments will be based on PK parameters. Assessments include safety, standardized cardiopulmonary exercise testing (CPET) with measurement of peak oxygen consumption, echocardiography to evaluate left ventricular ejection fraction (LVEF) and parameters of diastolic function, symptoms, quality of life, daily step counts, and NT-proBNP at rest and after exercise. In addition, subjects may consent to hypertrophic cardiomyopathy genotyping and pharmacogenetic sampling.
Cardiac Troponin I levels were evaluated on plasma and serum samples of subjects at baseline and at various time points in the trial (Abbott Architect Stat Troponin-I assay (Ref. 2K41)). Cardiac Troponin T levels were evaluated on plasma and serum samples of subjects at baseline and at various time points in the trial (Roche Elecsys Troponin T hs assay) (Ref. 08469873190) performed on a cobas e 801 analyzer). NT-proBNP levels were evaluated on plasma samples using the Roche Elecsys proBNPII assay (Ref. 07027664190) on a cobas e 801 analyzer.
5 mg QD was used as the starting dose for the study. All subjects in the active treatment groups started on 5 mg QD. […] PK modeling was used to guide blinded dose adjustment at the Week 6 visit, based on the plasma concentrations collected at Week 4. Subjects in the placebo group underwent the same assessments in order to preserve the blind. […] Subjects were instructed to take the drug under fasting conditions, at approximately the same time each day, and with 8 ounces of water.
To achieve the target concentration, if a subject's Week 4 concentration was >450 ng/ml, the subject's dose was decreased to 2.5 mg QD; if Week 4 concentration was 110-450 ng/mL, the dose was maintained at 5 mg QD; and if Week 4 concentration was <110 ng/mL, the dose was increased to 10 mg QD.
Subjects were monitored for adverse events (AE), including high blood plasma concentration, systolic dysfunction, QT prolongation, and LVEF decrease. If any of the following thresholds were hit PK 1000 or more, QTcF 500, or LVEF 45%, the subjects were discontinued on drug. Specifically, high blood plasma concentration was defined as blood plasma concentration greater than or equal to 1000 ng/ml; QT prolongation was defined as QTcF greater than or equal to 500 ms; and LVEF shortening was defined as LVEF less than or equal to 45% (including serious adverse event (SAE) for LVEF less than or equal to 30%).
Efficacy and pharmacodynamics assessments were also made. Resting transthoracic echocardiography measurements were taken at Weeks 4, 8, 12 and 16. Ejection fraction (2-D) and LV frantional shortening were analyzed along with other echocardiographic at baseline measures including measure of diastolic function. […]

[1] = Elevated Troponin subgroup (N = 13), Mean
[2] = Elevated Troponin subgroup, Mean Difference vs Placebo
[3] = ITT, Group 1 ~200 ng/mL (n = 19)
[4] = ITT, Group 2 ~500 ng/mL (n = 21)
[5] = ITT, Week 16, pooled-mavacamten group
[6] = Other subgroup, Mean Difference vs Placebo
[7] = Subgroup with Elevated E/e′ at Baseline, Difference mavacamten vs placebo
[8] = Subgroup with Elevated E/e′ at Baseline, Pooled (n = 14)
[9] = Subgroup with Elevated cTnI at Baseline, Difference mavacamten vs placebo
[10] = Subgroup with Elevated cTnI at Baseline, Pooled (n = 13)
[11] = week 16, pooled-mavacamten group

SMILES: CC(C)n1c(=O)cc(N[C@@H](C)c2ccccc2)[nH]c1=O [mavacamten, (S)-3-Isopropyl-6-((1-phenylethyl)amino)pyrimidine-2, 4(1H,3H)-dione]
- participants with a decrease in LVEF to ≤45% (5 participants among the 40 receiving active treatment, weeks 11-12): 12.5%
- Composite functional endpoint Type 1, % (Group 1 ~200 ng/mL (n = 9)): (11.1) %
- Composite functional endpoint Type 2, % (Group 1 ~200 ng/mL (n = 9)): (22.2) %
- Met composite functional endpoint, either type, % (Group 1 ~200 ng/mL (n = 9)): (33.3) %
- Composite functional endpoint Type 1, % (Group 2 ~500 ng/mL (n = 12)): (8.3) %
- Composite functional endpoint Type 2, % (Group 2 ~500 ng/mL (n = 12)): (25.0) %
- Met composite functional endpoint, either type, % (Group 2 ~500 ng/mL (n = 12)): (33.3) %
- Composite functional endpoint Type 1, % (Pooled (n = 21)): (9.5) %
- Composite functional endpoint Type 2, % (Pooled (n = 21)): (23.8) %
- Met composite functional endpoint, either type, % (Pooled (n = 21)): (33.3) %
- Average Daily Accelerometry Unit [1]: 136328
- Clinical KCCQ Summary Score [1]: 6.891
- NYHA Class [1]: −0.462
- Overall KCCQ Summary Score [1]: 6.410
- Peak VO2 [1]: 1.475 mL/min/kg
- Serum NT-proBNP [1]: -950.462 ng/L
- Serum Troponin I [1]: -0.123 ng/mL
- Average Daily Accelerometry Unit [2]: 350347
- Clinical KCCQ Summary Score [2]: 8.766
- NYHA Class [2]: −0.262
- Overall KCCQ Summary Score [2]: 1.896
- Peak VO2 [2]: 2.695 mL/min/kg
- Serum NT-proBNP [2]: -784.062 ng/L
- Serum Troponin I [2]: -0.083 ng/mL
- participants achieving the composite functional endpoint (ITT, Group 1): 16%
- Change in Clinical KCCQ Summary Score, Mean [3]: 0.11
- Change in LVEDV, Mean [3]: 1.15 mL
- Change in LVEF, Mean [3]: −2.30%
- Change in Lateral e′, Mean [3]: 0.34 cm/s
- Change in NYHA Class, Mean [3]: −0.6
- Change in Overall KCCQ Summary Score, Mean [3]: 0.35
- Change in Peak VO2, Mean [3]: 0.36 mL/min/kg
- Change in Septal e′, Mean [3]: 0.64 cm/s
- NT-proBNP, Geometric mean, percent change [3]: −47.1%
- cTnI, Geometric mean, percent change [3]: −23.4%
- participants achieving the composite functional endpoint (ITT, Group 2): 29%
- Change in Clinical KCCQ Summary Score, Mean [4]: 5.66
- Change in LVEDV, Mean [4]: 6.50 mL
- Change in LVEF, Mean [4]: −5.61%
- Change in Lateral e′, Mean [4]: 1.46 cm/s
- Change in NYHA Class, Mean [4]: −0.3
- Change in Overall KCCQ Summary Score, Mean [4]: 6.24
- Change in Peak VO2, Mean [4]: 0.12 mL/min/kg
- Change in Septal e′, Mean [4]: 1.60 cm/s
- NT-proBNP, Geometric mean, percent change [4]: −57.9%
- cTnI, Geometric mean, percent change [4]: −41.0%
- Change in Clinical KCCQ Summary Score, Mean (ITT, Pooled (n = 40)): 3.37
- Change in LVEDV, Mean (ITT, Pooled (n = 40)): 4.04 mL
- Change in LVEF, Mean (ITT, Pooled (n = 40)): −4.09%
- Change in Lateral e′, Mean (ITT, Pooled (n = 40)): 0.94 cm/s
- Change in NYHA Class, Mean (ITT, Pooled (n = 40)): −0.4
- Change in Overall KCCQ Summary Score, Mean (ITT, Pooled (n = 40)): 3.82
- Change in Peak VO2, Mean (ITT, Pooled (n = 40)): 0.22 mL/min/kg
- Change in Septal e′, Mean (ITT, Pooled (n = 40)): 1.17 cm/s
- NT-proBNP, Geometric mean, percent change (ITT, Pooled (n = 40)): −53.2%
- cTnI, Geometric mean, percent change (ITT, Pooled (n = 40)): −34.0%
- cTnI geometric mean difference [5]: -0.008 ng/mL
- cTnI geometric mean, decrease [5]: 34%
- Average Daily Accelerometry Unit (Other subgroup (N = 27), Mean): 82413
- Clinical KCCQ Summary Score (Other subgroup (N = 27), Mean): 1.195
- NYHA Class (Other subgroup (N = 27), Mean): −0.417
- Overall KCCQ Summary Score (Other subgroup (N = 27), Mean): 2.210
- Peak VO2 (Other subgroup (N = 27), Mean): -0.530 mL/min/kg
- Serum NT-proBNP (Other subgroup (N = 27), Mean): -280.667 ng/L
- Serum Troponin I (Other subgroup (N = 27), Mean): -0.003 ng/mL
- Average Daily Accelerometry Unit [6]: 293157
- Clinical KCCQ Summary Score [6]: −5.964
- NYHA Class [6]: 0.122
- Overall KCCQ Summary Score [6]: −4.495
- Peak VO2 [6]: -1.807 mL/min/kg
- Serum NT-proBNP [6]: -178.513 ng/L
- Serum Troponin I [6]: -0.004 ng/mL
- Change from Baseline in Clinical KCCQ Summary Score, Mean [7]: 4.1
- Change from Baseline in LVEDVi, Mean [7]: 3.9 mL/m^2
- Change from Baseline in NT-proBNP, Mean [7]: -355 ng/L
- Change from Baseline in NYHA Class, Mean [7]: 0.0
- Change from Baseline in Overall KCCQ Summary Score, Mean [7]: 0.4
- Change from Baseline in Peak VO2, Mean [7]: 1.9 mL/min/kg
- Change from Baseline in cTnI, Mean [7]: -0.07 ng/mL
- Change from Baseline in Clinical KCCQ Summary Score, Mean [8]: 4.6
- Change from Baseline in LVEDVi, Mean [8]: 2.8 mL/m^2
- Change from Baseline in NT-proBNP, Mean [8]: -656 ng/L
- Change from Baseline in NYHA Class, Mean [8]: −0.4
- Change from Baseline in Overall KCCQ Summary Score, Mean [8]: 4.7
- Change from Baseline in Peak VO2, Mean [8]: 1.2 mL/min/kg
- Change from Baseline in cTnI, Mean [8]: -0.09 ng/mL
- Change from Baseline in Clinical KCCQ Summary Score, Mean [9]: 8.8
- Change from Baseline in LVEDVi, Mean [9]: 0.042 mL/m^2
- Change from Baseline in NT-proBNP, Mean [9]: -784 ng/L
- Change from Baseline in NYHA Class, Mean [9]: −0.3
- Change from Baseline in Overall KCCQ Summary Score, Mean [9]: 1.9
- Change from Baseline in Peak VO2, Mean [9]: 2.70 mL/min/kg
- Change from Baseline in cTnI, Mean [9]: -0.083 ng/mL
- Change from Baseline in Clinical KCCQ Summary Score, Mean [10]: 6.9
- Change from Baseline in LVEDVi, Mean [10]: 0.79 mL/m^2
- Change from Baseline in NT-proBNP, Mean [10]: -951 ng/L
- Change from Baseline in NYHA Class, Mean [10]: −0.5
- Change from Baseline in Overall KCCQ Summary Score, Mean [10]: 6.4
- Change from Baseline in Peak VO2, Mean [10]: 1.47 mL/min/kg
- Change from Baseline in cTnI, Mean [10]: -0.12 ng/mL
- subjects with transient ejection fraction reductions below the protocol-defined threshold of 45% (active drug arms): five
- participants achieving the composite functional endpoint (combined subgroup (elevated cTnI or E/e′average >14 at baseline), mavacamten-treated): 33%
- study subjects in whom cTnI levels remained unchanged (elevated cTnI subgroup, week 16 (2 of 13)): 15.4%
- study subjects in whom cTnI levels decreased (elevated cTnI subgroup, week 16 vs baseline (11 of 13)): 84.6%
- Serious adverse events (SAEs), frequency in subjects (subjects receiving mavacamten, placebo arm 21%): 10%
- percentage change in cardiac troponin I from baseline (treated individuals): 30-80%
- NT-proBNP geometric mean, decrease (week 16, Group 1): 47%
- NT-proBNP geometric mean, decrease (week 16, Group 2): 58%
- NT-proBNP geometric mean difference [11]: -435 pg/mL
- NT-proBNP geometric mean, decrease [11]: 53%
